The text below walks through data of patent US20170333591A9, “ABSORBENT ARTICLE COMPRISING MALODOR REDUCTION COMPOSITIONS” (The Procter & Gamble Company, priority 2014, published 2017).

One data set in a line: Log of liquid dish neat product liquid-air partition coefficient. Type of data set: physicochemical.
Conditions: not given
Consider `CC(=O)[C@@]1(C)CC2=C(CCCC2(C)C)C[C@@H]1C` [Material 215], for which the “Comment Code: Log of liquid dish neat product liquid-air partition coefficient” value (shortened to “Comment Code: Log”) is on record as “K (Log of liquid dish neat product liquid-air partition coefficient greater than or equal to 7)”.

On to `COc1ccc(CC(C)=O)cc1` [Material 983], for which the “Comment Code: Log” value was “K (Log of liquid dish neat product liquid-air partition coefficient greater than or equal to 7)”.

As to `CC1=CC[C@@H]2[C@@]3(C)CCCC(C)(C)[C@@H]3CC[C@@]2(C)O1` [Material 1029], the “Comment Code: Log” value is on record as “K (Log of liquid dish neat product liquid-air partition coefficient greater than or equal to 7)”.

Turning to `CC=Cc1ccc(OC(C)=O)c(OC)c1` [Material 213], the “Comment Code: Log” value was “K (Log of liquid dish neat product liquid-air partition coefficient greater than or equal to 7)”.

For the molecule `CC(C)C1CCC(CO)CC1` (stereo not shown) [Material 133], the “Comment Code: Log” value was “K (Log of liquid dish neat product liquid-air partition coefficient greater than or equal to 7)”.

For `CC1(C)C2=C(CO)CCC(C)(C)C23CCC1C3` (stereo not shown) [Material 248], the “Comment Code: Log” value was “K (Log of liquid dish neat product liquid-air partition coefficient greater than or equal to 7)”.

For `C/C=C1/CC2CC1C1CCC(=O)OC21` (stereo not shown) [Material 353], the “Comment Code: Log” value is on record as “K (Log of liquid dish neat product liquid-air partition coefficient greater than or equal to 7)”.

In the case of `CC(C)C(=O)OCCc1ccccc1` [Material 958], the “Comment Code: Log” value was “K (Log of liquid dish neat product liquid-air partition coefficient greater than or equal to 7)”.

Take `Cc1ccc(C(C)C)cc1O` [Material 575]: the “Comment Code: Log” value is “K (Log of liquid dish neat product liquid-air partition coefficient greater than or equal to 7)”.

`CC1=C(C/C=C(\C)C=O)C(C)(C)CCC1` [Material 602]: the “Comment Code: Log” value is “K (Log of liquid dish neat product liquid-air partition coefficient greater than or equal to 7)”.

For the molecule `C=C1CCC2OC2(C)CCC2C1CC2(C)C` (stereo not shown) [Material 1148], the “Comment Code: Log” value is “K (Log of liquid dish neat product liquid-air partition coefficient greater than or equal to 7)”.

Still in this data set, the particulars now being: Comment Code letters K and/or L.
Take `C=C1CCC2OC2(C)CCC2C1CC2(C)C` (stereo not shown) [Material 1148]: the “Log of liquid dish neat product liquid-air partition coefficient (Comment Code K/L)” value (“Log … (Comment Code K/L)” for short) is “K (Log of liquid dish neat product liquid-air partition coefficient greater than or equal to 7)”.

The same data set, now with this note: code letter within the Comment Code cell.
Regarding `c1ccc(CCCc2ccccn2)cc1` [Material 497], the “Log … (Comment Code K/L)” value is given as “K (Log of liquid dish neat product liquid-air partition coefficient greater than or equal to 7)”.

Consider `CC(=O)[C@@]1(C)CC2=C(CCCC2(C)C)C[C@@H]1C` [Material 215], for which the “Log … (Comment Code K/L)” value was “K (Log of liquid dish neat product liquid-air partition coefficient greater than or equal to 7)”.

`OC1CCC2CCCCC2C1` (stereo not shown) [Material 474]: the “Log … (Comment Code K/L)” value is recorded as “K (Log of liquid dish neat product liquid-air partition coefficient greater than or equal to 7)”.

Regarding `CCOC(C=C(C)CCC=C(C)C)OCC` [Material 521], the “Log … (Comment Code K/L)” value was “K (Log of liquid dish neat product liquid-air partition coefficient greater than or equal to 7)”.

On to `COc1ccccc1-c1ccccc1` [Material 22], for which the “Log … (Comment Code K/L)” value is given as “K (Log of liquid dish neat product liquid-air partition coefficient greater than or equal to 7)”.

For `CC/C(C)=C/CC/C(C)=C\C#N` [Material 158], the “Log … (Comment Code K/L)” value is recorded as “K (Log of liquid dish neat product liquid-air partition coefficient greater than or equal to 7)”.

Regarding `COC(OC)C(C)c1ccccc1` (stereo not shown) [Material 256], the “Log … (Comment Code K/L)” value is on record as “K (Log of liquid dish neat product liquid-air partition coefficient greater than or equal to 7)”.

Regarding `CC=CC(=O)C1C(C)C=CCC1(C)C` (stereo not shown) [Material 466], the “Log … (Comment Code K/L)” value is “K (Log of liquid dish neat product liquid-air partition coefficient greater than or equal to 7)”.

Regarding `CCCCCCC#CC(OC)OC` [Material 3], the “Log … (Comment Code K/L)” value is reported as “K (Log of liquid dish neat product liquid-air partition coefficient greater than or equal to 7)”.

Regarding `CC/C=C\CCC1=CCCC1=O` [Material 146], the “Log … (Comment Code K/L)” value is reported as “K (Log of liquid dish neat product liquid-air partition coefficient greater than or equal to 7)”.

Turning to `CC(C)c1ccc(CO)cc1` [Material 491], the “Log … (Comment Code K/L)” value is on record as “K (Log of liquid dish neat product liquid-air partition coefficient greater than or equal to 7)”.

With `C/C=C1/CC2CC1C1CCC(=O)OC21` (stereo not shown) [Material 353], the “Log … (Comment Code K/L)” value is recorded as “K (Log of liquid dish neat product liquid-air partition coefficient greater than or equal to 7)”.

As to `CC(C)=CCCC(C)=CCCC(C)=CCO` [Material 369], the “Log … (Comment Code K/L)” value is “K (Log of liquid dish neat product liquid-air partition coefficient greater than or equal to 7)”.

As for `CCCCCCCCCCCC=O` [Material 178], the “Log … (Comment Code K/L)” value is reported as “K (Log of liquid dish neat product liquid-air partition coefficient greater than or equal to 7)”.

`O=C1CCCCCCCCCCCCCCO1` [Material 370]: the “Log … (Comment Code K/L)” value was “K (Log of liquid dish neat product liquid-air partition coefficient greater than or equal to 7)”.

`CCC(=O)OC1CC2CCC1(C)C2(C)C` (stereo not shown) [Material 228]: the “Log … (Comment Code K/L)” value is recorded as “K (Log of liquid dish neat product liquid-air partition coefficient greater than or equal to 7)”.

Still in this data set, the particulars now being: code letters K/L of the Comment Code.
In the case of `C/C(=C\C#N)CCc1ccccc1` [Material 894], the “Log of liquid dish neat product liquid-air partition coefficient (Comment Code)” value (shortened to “Log … (Comment Code)”) was “K (Log of liquid dish neat product liquid-air partition coefficient greater than or equal to 7)”.

Regarding `CCCCCC1C(=O)CCC1CC(=O)OC` (stereo not shown) [Material 1083], the “Log … (Comment Code)” value was “K (Log of liquid dish neat product liquid-air partition coefficient greater than or equal to 7)”.

`CC1=CC[C@@H]2[C@@]3(C)CCCC(C)(C)[C@@H]3CC[C@@]2(C)O1` [Material 1029]: the “Log … (Comment Code)” value was “K (Log of liquid dish neat product liquid-air partition coefficient greater than or equal to 7)”.

`CCCOC(C)OCCc1ccccc1` (stereo not shown) [Material 766]: the “Log … (Comment Code)” value is on record as “K (Log of liquid dish neat product liquid-air partition coefficient greater than or equal to 7)”.

For the molecule `OCCc1ccccc1` [Material 955], the “Log … (Comment Code)” value is reported as “K (Log of liquid dish neat product liquid-air partition coefficient greater than or equal to 7)”.

For `CC1=CC(=O)CC(C)C12CCC(=C(C)C)C2` (stereo not shown) [Material 610], the “Log … (Comment Code)” value is reported as “K (Log of liquid dish neat product liquid-air partition coefficient greater than or equal to 7)”.

As to `CC1=CCC(O)(C(C)C)CC1` (stereo not shown) [Material 800], the “Log … (Comment Code)” value was “K (Log of liquid dish neat product liquid-air partition coefficient greater than or equal to 7)”.

As for `CC(C)c1ccc(CCC=O)cc1` [Material 826], the “Log … (Comment Code)” value is recorded as “K (Log of liquid dish neat product liquid-air partition coefficient greater than or equal to 7)”.

Turning to `CC(C)=CCCC1=CCC(C)(C=O)CC1` (stereo not shown) [Material 727], the “Log … (Comment Code)” value is “K (Log of liquid dish neat product liquid-air partition coefficient greater than or equal to 7)”.
